Reference: article PMC11912471 (Journal of Medicinal Chemistry, 2025)
Structures can show the parent of a compound that is named as a salt. Where two headings read alike, the source gives them in different places.

Columns and labels:
[1] = target: T1, endogenous ODC in Kelly neuroblastoma cells (Homo sapiens, UniProt P11926); test: Cell-based ODC activity assay; details: 500 μM inhibitor, Figure 6A
T1 construct: host or cells: Kelly neuroblastoma cells
T1 sequence (P11926 1-461): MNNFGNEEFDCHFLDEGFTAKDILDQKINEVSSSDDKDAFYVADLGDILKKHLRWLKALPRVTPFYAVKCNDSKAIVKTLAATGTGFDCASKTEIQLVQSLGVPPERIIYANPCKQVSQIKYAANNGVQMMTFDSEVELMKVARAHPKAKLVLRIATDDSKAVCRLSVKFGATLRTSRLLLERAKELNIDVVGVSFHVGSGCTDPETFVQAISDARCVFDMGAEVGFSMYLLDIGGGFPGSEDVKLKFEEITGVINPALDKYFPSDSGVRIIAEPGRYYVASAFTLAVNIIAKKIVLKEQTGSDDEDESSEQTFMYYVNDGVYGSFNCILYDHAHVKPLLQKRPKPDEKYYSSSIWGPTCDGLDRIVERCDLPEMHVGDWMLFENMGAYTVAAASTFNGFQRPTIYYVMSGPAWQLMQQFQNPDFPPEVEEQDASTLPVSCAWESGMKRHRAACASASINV
Protocol: In vitro ODC activity was measured using 100 ng of purified human ODC enzyme, as we previously described.[53],[99] ODC was incubated with increasing concentrations of inhibitors for 30 min at room temperature in a buffer containing 25 mM Tris and 0.1 mM EDTA. Each of the reactions was added to 200 μL of assay mix containing 6.25 mM Tris HCl (pH 7.5), 100 μM L-ornithine, 50 μM pyridoxal-5-phosphate, 1.56 mM DTT and 0.1 μCi [1–14C] L-ornithine (American Radiolabeled Chemicals, Inc., specific activity 55 mCi/mmol) in a microcentrifuge tube. In the cell-based ODC activity assay, Kelly neuroblastoma cells that were treated with 500 μM inhibitors were harvested in a buffer containing 25 mM Tris HCl, 0.1 mM EDTA, and 2.5 mM DTT. Fifty microliters of each homogenate were added to 200 μL of assay mix containing 6.25 mM tris HCl (pH 7.5), 500 μM L-ornithine, 50 μM pyridoxal-5-phosphate, 1.56 mM DTT and 0.1 μCi [1–14C] L-ornithine (American Radiolabeled Chemicals, Inc., specific activity 55 mCi/mmol) in a microcentrifuge tube. […] Disintegrations per minute (DPM) of each sample was measured using a TriCarb liquid scintillation counter (PerkinElmer). The specific ODC activity is expressed as nmol CO2/min/mg protein (in vitro) or pmol CO2/min/mg protein (cell-based). The individual ODC inhibitor IC50 values were determined using Graphpad Prism 8.

[2] = target: T2, purified human ODC enzyme (Homo sapiens, UniProt P11926); test: In vitro ODC enzyme activity assay; type: biochemical; details: for IC50: read-out: ODC biochemical inhibition IC50
T2 construct: His6 (C); made in house; host or cells: E. coli BL21(DE3)
T2 sequence (P11926 1-461): T1 sequence (P11926 1-461)
Protocol: (§1) Our strategy to identify novel ODC inhibitors was to first screen new analogs for ODC inhibition at 50 μM using our in vitro enzyme activity assay and purified human ODC (Table 1). Those showing significant inhibition were then titrated to provide an ODC IC50 followed by cell-based screening against both cancer (Kelly neuroblastoma) and noncancerous (neonatal fibroblasts) cell lines. For the cancer cell line, higher cytotoxicity was desired and for the noncancerous cell line counter screen, lower cytotoxicity was desired.
In vitro ODC activity was measured using 100 ng of purified human ODC enzyme, as we previously described.[53],[99] ODC was incubated with increasing concentrations of inhibitors for 30 min at room temperature in a buffer containing 25 mM Tris and 0.1 mM EDTA. […] In the cell-based ODC activity assay, Kelly neuroblastoma cells that were treated with 500 μM inhibitors were harvested in a buffer containing 25 mM Tris HCl, 0.1 mM EDTA, and 2.5 mM DTT. […] For both the in vitro and cell-based assay, the microcentrifuge tubes were then placed into scintillation vials containing a piece of filter paper saturated with 200 μL of 0.1 M NaOH to capture the release of radiolabeled carbon dioxide. The samples were incubated in a 37 °C incubator while shaking for 30 min (in vitro) or 2 h (cell-based). The enzymatic reaction was stopped by adding 250 μL of 5 M sulfuric acid to each sample and incubating at 37 °C while shaking for 30 min. The microcentrifuge tubes were removed from the scintillation vials, and 5 mL of scintillation fluid was added. Disintegrations per minute (DPM) of each sample was measured using a TriCarb liquid scintillation counter (PerkinElmer). The specific ODC activity is expressed as nmol CO2/min/mg protein (in vitro) or pmol CO2/min/mg protein (cell-based). The individual ODC inhibitor IC50 values were determined using Graphpad Prism 8.

[3] = system: normal primary human neonatal fibroblast cells; test: Sulforhodamine B (SRB) cytotoxicity assay, neonatal fibroblasts; type: cell-based; details: 500 μM; for Cell cytotoxicity (72 hr @ 500 μM) Neonatal Fibroblasts: percent cytotoxicity
Protocol: as §1
(§2) Normal primary human neonatal fibroblast cells (ATCC) were maintained in DMEM medium (Gibco) supplemented with 10% heat-inactivated fetal bovine serum (Hyclone), penicillin (100 IU/mL), and streptomycin (100 μg/mL), nonessential amino acids (0.1 mM) and sodium pyruvate (1 mM). Kelly neuroblastoma cells (Sigma-Aldrich) were maintained in RPMI medium (Corning) supplemented with 10% heat-inactivated fetal bovine serum (Hyclone), penicillin (100 IU/mL), and streptomycin (100 μg/mL). Cell lines were routinely monitored for mycoplasma contamination using the MycoAlert PLUS Mycoplasma Detection Kit (Lonza).
(§3) The colorimetric sulforhodamine B (SRB) assay was used to measure cytotoxicity following treatment with ODC inhibitors. Briefly, Kelly neuroblastoma cells and normal primary human neonatal fibroblast cells were plated in transparent flat 96-well plates and allowed to attach overnight. Cells were treated with control or 500 μM ODC inhibitor for 72 h. Cells were then fixed with 10% TCA at 4 °C for 1 h, washed with deionized water, and dried at room temperature. Cells were stained with 100 μL of 0.4% SRB in 1% acetic acid for 20 min at room temperature, rinsed five times with 1% acetic acid and allowed to dry at room temperature. One hundred μL of 10 mM Tris–HCl pH 7.0 was added to each well, shaken for 10 min at room temperature and absorbance was read at 540 nm. Absorbance values were normalized relative to control readings and converted to percentage by multiplying by one hundred. The percent cytotoxicity was then determined by subtracting the relative percentage of the ODC inhibitor treated readings from the control which is 100%.

[4] = as above; type: cell-based, human; details: human, normal primary neonatal fibroblast cells; 72 hrs @500 µM; supplement csv
Protocol: as §1, §2, §3

[5] = read-out: ODC biochemical inhibition % (50 μM)

| endogenous cellular ODC activity relative to control (in words) [1] | inhibition at 50 µM ([2]; 50 µM, supplement csv, read-out: ODC % inhibition (screened at 50 µM)) [%] | inhibition at 50 µM [2, 5] [%] | IC50 [2] [nM] | Compound | cytotoxic activity against neonatal fibroblasts (in words) ([3]; 72 h) | Cell cytotoxicity (72 hr @ 500 μM) Neonatal Fibroblasts [3] [%] | cytotoxicity at 72 h, 500 µM [4] [%] |
| --- | --- | --- | --- | --- | --- | --- | --- |
| significantly reduced | 99 | > 99 | 40 | NCCCON [APA, 3-(Aminooxy)propan-1-Amine Dihydrochloride] | somewhat reduced overt cytotoxic activity | 37±10 | 37 |
| greatest reduction |  | > 99 | 50 | Cl.Cl.NOCC1(F)CCNC1 (stereo not drawn) [Compound 11, 3-[(aminooxy)methyl]-3-fluoropyrrolidine di-formic acid] |  | 21±17 | 21 |
